According to ChEMBL document CHEMBL5331129, “Discovery of NAFLD-Improving Agents by Promoting the Degradation of Keap1” (J Med Chem, 2023):
Activity calls are given as the source filed them. The rule behind the calls is not given here.

Key:
[1] = test system: Mus musculus; assay: Antioxidant activity against MCD diet-induced oxidative stress in C57Bl/6 mouse model of NAFLD assessed as downregulation of liver Keap1 protein expression level at 0.5 to 2 mg/kg,ip administrated for 4 weeks by immunohistochemical staining assay; format: functional, organism-based; settings: dose 0.5-2 mg/kg
[2] = test system: Mus musculus; assay: Antioxidant activity against MCD diet-induced oxidative stress in C57Bl/6 mouse model of NAFLD assessed as upregulation of liver Nrf2 protein expression level at 0.5 to 2 mg/kg,ip administrated for 4 weeks by immunofluorescence staining analysis; format: functional, organism-based; settings: dose 0.5-2 mg/kg
[3] = test system: Mus musculus; assay: Antioxidant activity against MCD diet-induced oxidative stress in C57Bl/6 mouse model of NAFLD assessed as reduction of serum AST level at 0.5 to 2 mg/kg,ip administrated for 4 weeks; format: functional, organism-based; settings: dose 0.5-2 mg/kg
[4] = test system: Mus musculus; assay: Antioxidant activity against MCD diet-induced oxidative stress in C57Bl/6 mouse model of NAFLD assessed as reduction of hepatic steatosis in liver at ip administrated for 4 weeks by hematoxylin and eosin staining based assay; format: functional, organism-based
[5] = Toxicity in C57BL/6 mouse assessed as histopathological change in liver at 2 mg/kg,ip qd administrated for 4 weeks by hematoxylin and eosin staining based assay; format: organism-based; settings: in vivo, 672 h
[6] = test system: AML12; assay: Antioxidant activity against free fatty acid induced oxidative stress in mouse AML12 cells assessed as decrease in ROS level at 0.125 to 0.5 uM incubated for 24 hrs; format: functional, cell-based; settings: dose 0.125-0.5 µM
[7] = test system: Mus musculus; assay: Antioxidant activity against MCD diet-induced oxidative stress in C57Bl/6 mouse model of NAFLD assessed as reduction of serum ALT level at 0.5 to 2 mg/kg,ip administrated for 4 weeks; format: functional, organism-based; settings: dose 0.5-2 mg/kg
[8] = test system: Mus musculus; assay: Antioxidant activity against MCD diet-induced oxidative stress in C57Bl/6 mouse model of NAFLD assessed as increase in SOD level in liver at 0.5 to 2 mg/kg,ip administrated for 4 weeks; format: functional, organism-based; settings: dose 0.5-2 mg/kg
[9] = Toxicity in C57BL/6 mouse assessed as histopathological change in lung at 2 mg/kg,ip qd administrated for 4 weeks by hematoxylin and eosin staining based assay; format: organism-based; settings: in vivo, 672 h
[10] = test system: AML12; assay: Antioxidant activity against free fatty acid induced oxidative stress in mouse AML12 cells assessed as reduction in intracellular lipid accumulation at 0.5 uM incubated for 24 hrs by Oil Red O staining based microscopic analysis; format: functional, cell-based
[11] = Acute toxicity in C57BL/6 mouse assessed as histopathological change in spleen at 20 mg/kg,ip qd administrated for 3 consecutive days and measured on day 4 by hematoxylin and eosin staining based assay; format: organism-based; settings: in vivo
[12] = test system: Mus musculus; assay: Antioxidant activity against MCD diet-induced oxidative stress in C57Bl/6 mouse model of NAFLD assessed as upregulation of liver Nrf2 protein expression level at 0.5 to 2 mg/kg,ip administrated for 4 weeks by immunoblot analysis; format: functional, organism-based; settings: dose 0.5-2 mg/kg
[13] = test system: Mus musculus; assay: Antioxidant activity against MCD diet-induced oxidative stress in C57Bl/6 mouse model of NAFLD assessed as upregulation of liver NQO1 protein expression level at 0.5 to 2 mg/kg,ip administrated for 4 weeks by immunohistochemical staining assay; format: functional, organism-based; settings: dose 0.5-2 mg/kg
[14] = test system: Mus musculus; assay: Antioxidant activity against MCD diet-induced oxidative stress in C57Bl/6 mouse model of NAFLD assessed as increase in CAT level in liver at 0.5 to 2 mg/kg,ip administrated for 4 weeks; format: functional, organism-based; settings: dose 0.5-2 mg/kg
[15] = Acute toxicity in C57BL/6 mouse assessed as histopathological change in heart at 20 mg/kg,ip qd administrated for 3 consecutive days and measured on day 4 by hematoxylin and eosin staining based assay; format: organism-based; settings: in vivo
[16] = test system: AML12; assay: Antioxidant activity against free fatty acid induced oxidative stress in mouse AML12 cells assessed as upregulation of HO-1 protein expression level at 0.125 to 0.5 uM incubated for 24 hrs by immunoblot analysis; format: functional, cell-based; settings: dose 0.125-0.5 µM
[17] = test system: Mus musculus; assay: Antioxidant activity against MCD diet-induced oxidative stress in C57Bl/6 mouse model of NAFLD assessed as downregulation of liver Keap1 protein expression level at 0.5 to 2 mg/kg,ip administrated for 4 weeks by immunoblot analysis; format: functional, organism-based; settings: dose 0.5-2 mg/kg
[18] = test system: Mus musculus; assay: Antioxidant activity against MCD diet-induced oxidative stress in C57Bl/6 mouse model of NAFLD assessed as reduction of pericellular fibrosis in liver at ip administrated for 4 weeks by Sirius red staining based analysis; format: functional, organism-based
[19] = Acute toxicity in C57BL/6 mouse assessed as histopathological change in liver at 20 mg/kg,ip qd administrated for 3 consecutive days and measured on day 4 by hematoxylin and eosin staining based assay; format: organism-based; settings: in vivo
[20] = test system: Mus musculus; assay: Antioxidant activity against MCD diet-induced oxidative stress in C57Bl/6 mouse model of NAFLD assessed as reduction of liver macrophage infiltration at 0.5 to 2 mg/kg,ip administrated for 4 weeks by immunostaining assay; format: functional, organism-based; settings: dose 0.5-2 mg/kg
[21] = Cardiotoxicity in zebrafish at 10 uM observed at 72 hrs post fertilization; format: toxicity, Danio rerio
[22] = test system: AML12; assay: Antioxidant activity against free fatty acid induced oxidative stress in mouse AML12 cells assessed as reduction in triglyceride level at 0.5 uM incubated for 24 hrs; format: functional, cell-based
[23] = biological target: Protein cereblon/Kelch-like ECH-associated protein 1 (Mus musculus, UniProt Q9Z2X8+Q8C7D2); assay: PROTAC activity at CRBN/Keap1 in mouse AML12 cells assessed as degradation of Keap1 protein at 0.5 to 2 uM incubated for 48 hrs by Western blotting analysis; format: cell-based
Protein cereblon/Kelch-like ECH-associated protein 1, sequence (Q9Z2X8 whole entry): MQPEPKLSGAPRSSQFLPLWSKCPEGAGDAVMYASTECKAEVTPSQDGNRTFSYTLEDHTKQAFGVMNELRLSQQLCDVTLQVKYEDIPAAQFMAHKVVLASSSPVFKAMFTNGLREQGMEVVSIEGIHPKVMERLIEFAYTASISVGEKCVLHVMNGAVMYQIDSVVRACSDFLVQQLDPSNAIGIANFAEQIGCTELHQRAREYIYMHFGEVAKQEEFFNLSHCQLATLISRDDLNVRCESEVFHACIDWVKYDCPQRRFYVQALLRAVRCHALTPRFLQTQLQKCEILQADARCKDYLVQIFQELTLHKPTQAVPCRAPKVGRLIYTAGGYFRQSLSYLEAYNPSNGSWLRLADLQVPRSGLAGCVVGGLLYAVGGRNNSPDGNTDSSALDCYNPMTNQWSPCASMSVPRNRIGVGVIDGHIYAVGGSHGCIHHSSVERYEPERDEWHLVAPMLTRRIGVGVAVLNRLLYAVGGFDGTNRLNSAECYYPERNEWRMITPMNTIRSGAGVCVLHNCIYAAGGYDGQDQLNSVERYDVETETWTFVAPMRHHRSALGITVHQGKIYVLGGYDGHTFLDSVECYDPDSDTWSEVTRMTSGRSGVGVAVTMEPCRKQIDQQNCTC
Protein cereblon/Kelch-like ECH-associated protein 1, sequence (Q8C7D2 whole entry): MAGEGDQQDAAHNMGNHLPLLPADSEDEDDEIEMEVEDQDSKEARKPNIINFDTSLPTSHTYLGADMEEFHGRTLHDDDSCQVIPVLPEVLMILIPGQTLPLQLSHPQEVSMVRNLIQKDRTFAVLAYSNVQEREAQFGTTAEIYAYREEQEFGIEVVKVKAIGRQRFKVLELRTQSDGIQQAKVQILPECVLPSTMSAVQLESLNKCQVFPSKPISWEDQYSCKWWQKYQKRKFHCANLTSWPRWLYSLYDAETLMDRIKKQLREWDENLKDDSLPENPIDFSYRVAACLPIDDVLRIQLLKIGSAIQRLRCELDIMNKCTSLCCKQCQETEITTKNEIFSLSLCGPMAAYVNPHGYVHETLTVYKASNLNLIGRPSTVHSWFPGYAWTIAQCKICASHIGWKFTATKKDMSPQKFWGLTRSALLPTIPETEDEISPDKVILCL

[24] = test system: AML12; assay: Antioxidant activity against free fatty acid induced oxidative stress in mouse AML12 cells assessed as increase in SOD level at 0.125 to 0.5 uM; format: functional, cell-based; settings: dose 0.125-0.5 µM
[25] = test system: AML12; assay: Antioxidant activity against free fatty acid induced oxidative stress in mouse AML12 cells assessed as upregulation of NQO1 protein expression level at 0.125 to 0.5 uM incubated for 24 hrs by immunoblot analysis; format: functional, cell-based; settings: dose 0.125-0.5 µM
[26] = test system: Mus musculus; assay: Antioxidant activity against MCD diet-induced oxidative stress in C57Bl/6 mouse model of NAFLD assessed as reduction of morphological change in liver at ip administrated for 4 weeks by hematoxylin and eosin staining based assay; format: functional, organism-based
[27] = Toxicity in C57BL/6 mouse assessed as histopathological change in kidney at 2 mg/kg,ip qd administrated for 4 weeks by hematoxylin and eosin staining based assay; format: organism-based; settings: in vivo, 672 h
[28] = Toxicity in C57BL/6 mouse assessed as histopathological change in heart at 2 mg/kg,ip qd administrated for 4 weeks by hematoxylin and eosin staining based assay; format: organism-based; settings: in vivo, 672 h
[29] = Cardiotoxicity in zebrafish at 10 uM observed at 48 hrs post fertilization; format: toxicity, Danio rerio

SMILES: CC1(C)CC[C@]2(C(=O)NCCCCCNc3cccc4c3C(=O)N(C3CCC(=O)NC3=O)C4=O)CC[C@]3(C)[C@H](C(=O)C=C4C5(C)C=C(C#N)C(=O)C(C)(C)[C@@H]5CC[C@]43C)[C@@H]2C1 (single isomer, unassigned)
- Activity [1]: Dose-Dependent Effect
- Activity [2]: Dose-Dependent Effect
- Activity [3]: Active
- Activity [4]: Dose-Dependent Effect
- Activity [5]: Non-Toxic
- Activity [6]: Active
- Activity [7]: Active
- Activity [8]: Active
- Activity [9]: Non-Toxic
- Activity [10]: Active
- Activity [11]: Non-Toxic
- Activity [12]: Dose-Dependent Effect
- Activity [13]: Dose-Dependent Effect
- Activity [14]: Active
- Activity [15]: Toxic
- Activity [16]: Active
- Activity [17]: Dose-Dependent Effect
- Activity [18]: Dose-Dependent Effect
- Activity [19]: Non-Toxic
- Activity [20]: Active
- Activity [21]: Non-Toxic
- Activity [22]: Active
- DC50 [23]: 210 nM
- Activity [24]: Active
- Activity [25]: Active
- Activity [26]: Dose-Dependent Effect
- Activity [27]: Non-Toxic
- Activity [28]: Non-Toxic
- Activity [29]: Non-Toxic
